Entries after “also recorded” stand apart in the source; their conditions may differ.
Tested on: C57BL/6 male mice
Assay: Mouse fear conditioning (contextual and auditory fear memory, freezing)
Assay type: in vivo
Procedure: siRNA corresponding to NR2B (sense 5′-GGAUGAGUCCUCCAUGUUCtt-3′ and antisense 5′-GAACAUGGAGGACUCAUCCtt-3′, Silencer Pre-designed siRNA, ID #61879, Ambion, Tex.) was delivered into the ACC by microelectroporation, which was performed as described previously (Wei et al., 2003). Briefly, 0.5 μl of 1:4 mixture of siRNA (2.5 μg/μl) and pEGFP-N1 (1 μg/μl) was injected into the ACC (0.7 mm anterior to Bregma, ±0.4 mm lateral from the midline, 1.8 mm beneath the surface of the skull) (Franklin and Paxinos, 1997) through a 30-gauge injection cannula. Then, square-wave electric pulses (five pulses at 1 Hz, 50 ms duration at 40 V) were delivered through a pair of silver electrodes placed 2 mm anterior and 1 mm posterior to the injection site using a S48 Stimulator (Grass Instruments). Control groups consisted of a group receiving only the electroporation shock, pEGFP-N1, or Silencer Negative control siRNA (#4611, Ambion) and pEGFP-N1. Western blot analysis was performed 4 days after electroporation and electrophysiological recordings were taken 2-4 days after.
Under ketamine and xylazine anesthesia, 24-guage guide cannulas were implanted bilaterally into the ACC (0.7 mm anterior to Bregma, ±0.4 mm lateral from the midline, 1.7 mm beneath the surface of the skull) or dorsal hippocampus (2.0 mm posterior to Bregma, ±1.5 mm lateral from the midline, 1.9 mm beneath the surface of the skull). Mice were given at least 2 weeks to recover after cannula implantation. All procedures were performed in accordance with the requirements of the Animal Studies Committee at the University of Toronto. The 30-gauge injection cannula was 0.1 mm lower than the guide. For intra-ACC infusion, 0.5 μl Ro25-6981 (4 μg/μl) or saline was delivered bilaterally within 90 s using a pump. 15 min later mice were conditioned by one pairing of a tone (2.8 kHz, 85 dB, 30 s) and a foot shock (0.75 mA, 2 s) that terminated at the same time as the tone. For intra-hippocampal infusion, 0.5 μl Ro25-6981 (10 μg/μl) or saline was delivered bilaterally within 90 s. 15 min later mice received one pairing of a tone and a foot shock, as above. One day later, animals were exposed to the conditioning context without a tone for 3 min and freezing responses were scored automatically (Freeze view software, Actrimetrics, Wilmette, Ill.).
NR2B subunit inhibition in adult mice was examined to determine whether this impairs the formation of contextual fear memory. Three days after bilateral siRNA electroporation, mice were trained (or conditioned) and then tested for contextual fear memory by assessing freezing behavior in the same environmental context after 24 hours. There was no difference in baseline freezing or in freezing immediately following the shock/tone pairing between groups; however, there was a significant difference between groups when tested in the contextual environment one day later (n=8 for EGFP only; n=10 for control siRNA; n=8 for shock only; n=11 for NR2B siRNA; one-way ANOVA, p=0.005; FIG. 8C). […] Since the activation of NR2B was suppressed throughout the training and memory test, the roles of NR2B during the acquisition and retrieval of fear memory cannot be distinguished. Recently, electric stimulation of the ACC was reported to induce fear memory one and three days after stimulation (Tang et al., 2005), which implies that the ACC may be involved in the acquisition of fear memory. To directly address this issue, the effect of NR2B blockade using Ro25-6981 was examined. […] In order to rule out any locomotor side-effects, locomotor activity in the open field was tested after bilateral ACC microinjection of Ro25-6981 (n=4) or vehicle (n=4).

[1] = mice, 5 μg in 0.5 μl bilaterally into dorsal hippocampi, tested one day after training

| Molecule | baseline freezing or freezing immediately following the shock/tone pairing (bilateral siRNA electroporation into ACC) | contextual fear memory (freezing in the contextual environment) (bilateral siRNA electroporation into ACC, trained three days later, tested after 24 hours) | auditory fear memory (mice, 2 μg in 0.5 μl per side into the bilateral ACC) | auditory fear memory [1] | contextual fear memory [1] | baseline or immediate freezing behavior (mice, ACC microinjection) | baseline or immediate freezing behavior (mice, hippocampal microinjection) | contextual fear memory (freezing in the contextual environment) (mice, microinjection 2 μg in 0.5 μl per side into the bilateral ACC before conditioning) |
| --- | --- | --- | --- | --- | --- | --- | --- | --- |
| NR2B siRNA: siRNA corresponding to NR2B, sense 5′-GGAUGAGUCCUCCAUGUUCtt-3′, antisense 5′-GAACAUGGAGGACUCAUCCtt-3′, Silencer Pre-designed siRNA ID #61879, Ambion (sense GGAUGAGUCCUCCAUGUUCTT; antisense GAACAUGGAGGACUCAUCCTT; chemistry not given here) | no difference | impaired contextual fear memory; also recorded: significantly less freezing |  |  |  |  |  |  |
| C[C@@H](CN1CCC(Cc2ccccc2)CC1)[C@@H](O)c1ccc(O)cc1 [Ro25-6981] |  |  | no difference in auditory fear memory | did not affect | did not impair contextual fear memory; also recorded: did not affect | did not significantly affect | did not significantly affect | decreased contextual fear memory; also recorded: significant reduction in freezing |
